According to patent publication US12145915B1 (priority 2023, dated 2024):
≈ marks a conversion by molar mass, not a printed value.

Tests used:
[1] = tested on: MDR strain of Mycobacterium tuberculosis; test: microbe, parasite or virus in culture; format: cell-based; conditions: read-out: Anti-tubercular activity against Mycobacterium tuberculosis (μg/mL) MDR (MIC)
[2] = tested on: XDR strain of Mycobacterium tuberculosis; test: microbe, parasite or virus in culture; format: cell-based; conditions: read-out: Anti-tubercular activity against Mycobacterium tuberculosis (μg/mL) XDR (MIC)

| SMILES | MIC [1] [µg/mL] | MIC [2] [µg/mL] |
| --- | --- | --- |
| Cc1nc(-c2ccc(OCC(C)C)c(C#N)c2)sc1C(=O)N/N=C/c1ccc(F)c(Oc2ccccc2)c1 [KNV-TZL1, (E)-2-(3-Cyano-4-isobutoxyphenyl)-N-(4-fluoro-3-phenoxybenzylidene)-4-methylthiazole-5-carbohydrazide] | 32 (≈ 60.5 µM) | 128 (≈ 242 µM) |
| COc1cc(/C=N/NC(=O)c2sc(-c3ccc(OCC(C)C)c(C#N)c3)nc2C)ccc1O [KNV-TZL2, (E)-2-(3-Cyano-4-isobutoxyphenyl)-N-(4-hydroxy-3-methoxybenzylidene)-4-methylthiazole-5-carbohydrazide] | 64 (≈ 138 µM) | 64 (≈ 138 µM) |
